Experimental data: the NIST ThermoML archive (doi:10.1021/acs.jced.8b00387)

Assay: xn = mol fraction of the nth substance listed
Settings: for viscosity / mass density / speed of sound: 102 kPa, Liquid; for viscosity: Concentric cylinders viscometry; for mass density: Vibrating tube method; for speed of sound: Frequency=3 MHz, Single path-length method; for surface tension liquid-gas: 294 K, Pendant drop shape

CC(CC(C)(C)C)CC(C)(C)C [2,2,4,6,6-pentamethylheptane] + CCCCCCc1ccccc1
Settings	mass density [kg/m3]	speed of sound [m/s]	viscosity [mPa·s]
253.15 K, x2 = 0.1	784.1	–	3
253.15 K, x2 = 0.2065	795	–	3.03
253.15 K, x2 = 0.3009	804.9	–	3.08
253.15 K, x2 = 0.3968	815.2	–	3.19
253.15 K, x2 = 0.5001	826.8	–	–
253.15 K, x2 = 0.5004	–	–	3.31
253.15 K, x2 = 0.6	838.5	–	3.47
253.15 K, x2 = 0.6998	850.5	–	3.7
253.15 K, x2 = 0.7997	863.5	–	3.93
253.15 K, x2 = 0.8999	875.7	–	4.2
288.15 K, x2 = 0.1	758.47	1238.9	–
288.15 K, x2 = 0.2065	769.17	1255.2	–
288.15 K, x2 = 0.3009	778.97	1270.3	–
288.15 K, x2 = 0.3968	789.42	1286.2	–
288.15 K, x2 = 0.5001	800.56	–	–
288.15 K, x2 = 0.5004	–	1302.9	–
288.15 K, x2 = 0.6	812.08	1320.1	–
288.15 K, x2 = 0.6998	824	1338	–
288.15 K, x2 = 0.7997	836.31	1356.4	–
288.15 K, x2 = 0.8999	849.13	1375.5	–
293.15 K, x2 = 0.1	754.83	1219	1.31
293.15 K, x2 = 0.2065	765.51	1235.7	1.31
293.15 K, x2 = 0.3009	775.3	1250.6	1.31
293.15 K, x2 = 0.3968	785.5	1266	1.35
293.15 K, x2 = 0.5001	796.87	–	–
293.15 K, x2 = 0.5004	–	1283.3	1.36
293.15 K, x2 = 0.6	808.37	1300.6	1.4
293.15 K, x2 = 0.6998	820.27	1318.6	1.46
293.15 K, x2 = 0.7997	832.57	1337.1	1.51
293.15 K, x2 = 0.8999	845.36	1356.2	1.56
303.15 K, x2 = 0.1	747.53	1180	1.12
303.15 K, x2 = 0.2065	758.19	1197.2	1.13
303.15 K, x2 = 0.3009	767.96	1211.8	1.14
303.15 K, x2 = 0.3968	778.14	1227.4	1.15
303.15 K, x2 = 0.5001	789.48	–	–
303.15 K, x2 = 0.5004	–	1244.8	1.17
303.15 K, x2 = 0.6	800.94	1262.2	1.2
303.15 K, x2 = 0.6998	812.8	1280.3	1.25
303.15 K, x2 = 0.7997	825.06	1299	1.29
303.15 K, x2 = 0.8999	837.82	1318.2	1.33
313.15 K, x2 = 0.1	740.2	1141.9	0.957
313.15 K, x2 = 0.2065	750.84	1159.3	0.962
313.15 K, x2 = 0.3009	760.6	1174	0.967
313.15 K, x2 = 0.3968	770.75	1189.7	0.979
313.15 K, x2 = 0.5001	782.06	–	–
313.15 K, x2 = 0.5004	–	1207.2	1
313.15 K, x2 = 0.6	793.5	1224.7	1.02
313.15 K, x2 = 0.6998	805.33	1243	1.06
313.15 K, x2 = 0.7997	817.55	1261.7	1.09
313.15 K, x2 = 0.8999	830.26	1281	1.12
323.15 K, x2 = 0.1	732.84	1104.7	0.848
323.15 K, x2 = 0.2065	743.45	1122.2	0.853
323.15 K, x2 = 0.3009	753.21	1136.9	0.861
323.15 K, x2 = 0.3968	763.34	1152.8	0.873
323.15 K, x2 = 0.5001	774.63	–	–
323.15 K, x2 = 0.5004	–	1170.4	0.889
323.15 K, x2 = 0.6	786.03	1188.1	0.911
323.15 K, x2 = 0.6998	797.82	1206.4	0.943
323.15 K, x2 = 0.7997	810.01	1225.2	0.964
323.15 K, x2 = 0.8999	822.68	1244.6	0.992
333.15 K, x2 = 0.1	725.44	1068.5	0.749
333.15 K, x2 = 0.2065	736.04	1085.8	0.753
333.15 K, x2 = 0.3009	745.77	1101	0.758
333.15 K, x2 = 0.3968	755.89	1117	0.768
333.15 K, x2 = 0.5001	767.15	–	–
333.15 K, x2 = 0.5004	–	1134.6	0.783
333.15 K, x2 = 0.6	778.54	1152.5	0.803
333.15 K, x2 = 0.6998	790.29	1170.8	0.828
333.15 K, x2 = 0.7997	802.45	1189.6	0.844
333.15 K, x2 = 0.8999	815.08	1209.1	0.87

Settings	surface tension liquid-gas [mN/m]
x2 = 0.1	21.9
x2 = 0.2065	22.5
x2 = 0.3009	23.1
x2 = 0.3968	23.5
x2 = 0.5001	24.1
x2 = 0.6	24.7
x2 = 0.6998	25.5
x2 = 0.7997	26.5
x2 = 0.8999	27.7
